Results as given in patent US20050239656A1, “Pyridine compounds or salts thereof and herbicides containing the same” (priority 2002, published 2005).

Experiments:
barnyardgrass [1] = assay: Test Example 1: foliage treatment, upland pot test; type: in vivo, Echinochloa crus-galli L.; conditions: active ingredient 500 g/ha, observed 18th to 23rd day, 0 = non-treated, 100 = complete kill
From the text: (§1) Upland field soil was put into a 1/170,000 ha pot, and seed of various plants were sown. Then, when the plants reached predetermined leaf stages ((1) barnyardgrass: 1.3 to 2.8 leaf stages, (2) crabgrass: 1.0 to 2.8 leaf stages, (3) green foxtail: 1.3 to 2.6 leaf stages, (4) redroot pigweed: 0.1 to 1.2 leaf stages, (5) prickly sida: 0.1 to 1.2 leaf stages, (6) velvetleaf: 0.1 to 1.2 leaf stages, (7) tall morningglory: 0.1 to 1.5 leaf stages, (8) rice: 1.2 to 2.6 leaf stages, (9) wheat: 1.3 to 2.4 leaf stages, (10) corn, 2.1 to 3.2 leaf stages, (11) soybean: 0.1 to 0.4 leaf stage), a wettable powder or emulsifiable concentrate having the compound of the present invention formulated in accordance with a usual formulation method, was weighed so that the active ingredient would be a predetermined amount, and diluted with water in an amount of 500 L/ha. To the diluted solution, 0.1% (v/v) of agricultural spreader was added. The herbicide thus adjusted was applied by a small size sprayer for foliage treatment. On the 18th to 23rd days after the application of the herbicide, the growth of the respective plants was visually observed, and the herbicidal effects were evaluated by the growth controlling degrees (%) ranging from 0 (equivalent to the non-treated plot) to 100 (complete kill), whereby the results shown in Table 3, were obtained.

crabgrass [2] = assay: Test Example 1: foliage treatment, upland pot test; type: in vivo, Digitaria sanguinalis L.; conditions: active ingredient 500 g/ha, observed 18th to 23rd day, 0 = non-treated, 100 = complete kill
From the text: as §1

green foxtail [3] = assay: Test Example 1: foliage treatment, upland pot test; type: in vivo, Setaria viridis L.; conditions: active ingredient 500 g/ha, observed 18th to 23rd day, 0 = non-treated, 100 = complete kill
From the text: as §1

redroot pigweed [4] = assay: Test Example 1: foliage treatment, upland pot test; type: in vivo, Amaranthus retroflexus L.; conditions: active ingredient 500 g/ha, observed 18th to 23rd day, 0 = non-treated, 100 = complete kill
From the text: as §1

prickly sida [5] = assay: Test Example 1: foliage treatment, upland pot test; type: in vivo, Sida spinosa L.; conditions: active ingredient 500 g/ha, observed 18th to 23rd day, 0 = non-treated, 100 = complete kill
From the text: as §1

velvetleaf [6] = assay: Test Example 1: foliage treatment, upland pot test; type: in vivo, Abutilon theophrasti MEDIC.; conditions: active ingredient 500 g/ha, observed 18th to 23rd day, 0 = non-treated, 100 = complete kill
From the text: as §1

rice [7] = assay: Test Example 1: foliage treatment, upland pot test; type: in vivo, Oryza sativa L.; conditions: crop, active ingredient 500 g/ha, observed 18th to 23rd day, 0 = non-treated, 100 = complete kill
From the text: as §1

corn [8] = assay: Test Example 1: foliage treatment, upland pot test; type: in vivo, Zea mays L.; conditions: crop, active ingredient 500 g/ha, observed 18th to 23rd day, 0 = non-treated, 100 = complete kill
From the text: as §1

soybean [9] = assay: Test Example 1: foliage treatment, upland pot test; type: in vivo, Glycine max Merr.; conditions: crop, active ingredient 500 g/ha, observed 18th to 23rd day, 0 = non-treated, 100 = complete kill
From the text: as §1

barnyardgrass [10] = assay: Test Example 3: paddy pot test, application under submerged conditions; type: in vivo, Echinochloa crus-galli L.; conditions: submerged application at 0.5 leaf stage, visually observed 14 days after application, 0 = non-treated, 100 = complete kill
Method in brief: (§2)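 Paddy soil pots; seeds sown, lightly covered; flooded 0.5–1 cm in greenhouse; wapato tubers planted day 1–2; flood raised to 3–4 cm. Submerged pipette application at 0.5 leaf / primary leaf stage. Visual score day 14, 0–100%.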

japanese bulrush = assay: as above; type: in vivo, Scirpus juncoides; conditions: submerged application at 0.5 leaf stage, visually observed 14 days after application, 0 = non-treated, 100 = complete kill
Method in brief: as §2

japanese ribbon wapato = assay: as above; type: in vivo, Sagittaria pygniaea; conditions: submerged application at primary leaf stage, visually observed 14 days after application, 0 = non-treated, 100 = complete kill
Method in brief: as §2

rice (var. Nihonbare) = assay: Test Example 3: paddy pot test, transplanted rice; type: in vivo, Oryza sativa L.; conditions: applied 4th day after transplantation, visually observed 21st day after application, 0 = non-treated, 100 = complete kill
Method in brief: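 Visual crop-injury rating (0 = as untreated, 100 = complete kill, %) taken 21 days post-application. Treatment: formulated compound, water-diluted, pipetted into 3–4 cm flood water at a preset active-ingredient dose, 4 days after transplanting 2-leaf Nihonbare rice 3 cm deep in puddled paddy soil.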

barnyardgrass [11] = assay: Test Example 2: soil surface treatment, upland pot test; type: in vivo, Echinochloa crus-galli L.; conditions: active ingredient 500 g/ha, observed 20th to 28th day
Method in brief: (§3)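 Readout was visual percent growth control (0 matching untreated, 100 complete kill) at days 20–28. Compound, as emulsifiable concentrate or wettable powder at a preset active-ingredient rate in 1,500 L/ha water, was sprayed onto sown upland soil one day after sowing.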

crabgrass [12] = assay: as above; type: in vivo, Digitaria sanguinalis L.; conditions: active ingredient 500 g/ha, observed 20th to 28th day
Method in brief: as §3

green foxtail [13] = assay: as above; type: in vivo, Setaria viridis L.; conditions: active ingredient 500 g/ha, observed 20th to 28th day
Method in brief: as §3

redroot pigweed [14] = assay: as above; type: in vivo, Amaranthus retroflexus L.; conditions: active ingredient 500 g/ha, observed 20th to 28th day
Method in brief: as §3

prickly sida [15] = assay: as above; type: in vivo, Sida spinosa L.; conditions: active ingredient 500 g/ha, observed 20th to 28th day
Method in brief: as §3

velvetleaf [16] = assay: as above; type: in vivo, Abutilon theophrasti MEDIC.; conditions: active ingredient 500 g/ha, observed 20th to 28th day
Method in brief: as §3

corn [17] = assay: as above; type: in vivo, Zea mays L.; conditions: active ingredient 500 g/ha, observed 20th to 28th day
Method in brief: as §3

soybean [18] = assay: as above; type: in vivo, Glycine max Merr.; conditions: active ingredient 500 g/ha, observed 20th to 28th day
Method in brief: as §3

rice [19] = assay: as above; type: in vivo, Oryza sativa L.; conditions: active ingredient 500 g/ha, observed 20th to 28th day
Method in brief: as §3

| Compound | Growth controlling degree (%) Barnyardgrass (barnyardgrass [1]) | Growth controlling degree (%) Crabgrass (crabgrass [2]) | Growth controlling degree (%) Green foxtail (green foxtail [3]) | Growth controlling degree (%) Redroot pigweed (redroot pigweed [4]) | Growth controlling degree (%) Prickly sida (prickly sida [5]) | Growth controlling degree (%) Velvetleaf (velvetleaf [6]) | Growth controlling degree (%) Rice (rice [7]) | Growth controlling degree (%) Corn (corn [8]) | Growth controlling degree (%) Soybean (soybean [9]) | Growth controlling degree (%) Barnyardgrass (barnyardgrass [10]; active ingredient 250 g/ha) | Growth controlling degree (%) Japanese bulrush (japanese bulrush; active ingredient 250 g/ha) | Growth controlling degree (%) Japanese ribbon wapato (japanese ribbon wapato; active ingredient 250 g/ha) | Growth controlling degree (%) Rice (rice (var. Nihonbare); active ingredient 250 g/ha) | Growth controlling degree (%) Barnyardgrass (barnyardgrass [11]) | Growth controlling degree (%) Crabgrass (crabgrass [12]) | Growth controlling degree (%) Green foxtail (green foxtail [13]) | Growth controlling degree (%) Redroot pigweed (redroot pigweed [14]) | Growth controlling degree (%) Prickly sida (prickly sida [15]) | Growth controlling degree (%) Velvetleaf (velvetleaf [16]) | Growth controlling degree (%) Corn (corn [17]) | further results |
| --- | --- | --- | --- | --- | --- | --- | --- | --- | --- | --- | --- | --- | --- | --- | --- | --- | --- | --- | --- | --- | --- |
| CC(C)C(c1cnccc1C(F)(F)F)N(C)C(=O)Cc1ccc(C#N)cc1 (racemic) [I-114] | 80% | 80% | 70% | 60% | 80% | 70% | 30% | 60% | 70% | 100% | 95% | 95% | 30% | – | – | – | – | – | – | – | – |
| CC(C)C(c1cnccc1C(F)(F)F)N(C)C(=O)Cc1ccc(Cl)c(Cl)c1 (stereo not drawn) [I-28] | 10% | 80% | 60% | 80% | 70% | 90% | 0% | 0% | 60% | 100% | 70% | 10% | 0% | 70% | 80% | 70% | 70% | 30% | 50% | 0% | Growth controlling degree (%) Soyabean (soybean [18]): 0% |
| CC(C)C(c1cnccc1C(F)(F)F)N(C)C(=O)Cc1ccc(C(F)(F)F)cc1 (stereo not drawn) [I-31] | 95% | 85% | 80% | 80% | 80% | 95% | 40% | 70% | 90% | 100% | 95% | – | 20% | 100% | 90% | 100% | 80% | 100% | 50% | 30% | Growth controlling degree (%) Rice (rice [19]): 10%; Growth controlling degree (%) Soyabean (soybean [18]): 50% |
| CC(C)C(c1cnccc1C(F)(F)F)N(C)C(=O)Cc1ccccc1[N+](=O)[O-] (stereo not drawn) [I-39] | 50% | 70% | 60% | 80% | 90% | – | 10% | 10% | 40% | 100% | 95% | 85% | 10% | 100% | 100% | 70% | 80% | 90% | 30% | 40% | Growth controlling degree (%) Rice (rice [19]): 10%; Growth controlling degree (%) Soyabean (soybean [18]): 50% |
| CCOC(=O)N(C)C(c1cnccc1C(F)(F)F)c1cccc2ccccc12 (stereo not drawn) [I-54] | 50% | 95% | 50% | 80% | 90% | 95% | 30% | 50% | 50% | – | – | – | – | – | – | – | – | – | – | – | Growth controlling degree (%) Barnyardgrass (barnyardgrass [10]; active ingredient 500 g/ha): 100%; Growth controlling degree (%) Japanese bulrush (japanese bulrush; active ingredient 500 g/ha): 70%; Growth controlling degree (%) Japanese ribbon wapato (japanese ribbon wapato; active ingredient 500 g/ha): 0%; Growth controlling degree (%) Rice (rice (var. Nihonbare); active ingredient 500 g/ha): 20% |
| CC(C)C(c1cnccc1Cl)N(C)C(=O)Cc1cccc(C(F)(F)F)c1 (stereo not drawn) [I-68] | 0% | 60% | 10% | 70% | 70% | 80% | 0% | 0% | 10% | – | – | – | – | – | – | – | – | – | – | – | Growth controlling degree (%) Barnyardgrass (barnyardgrass [10]; active ingredient 125 g/ha): 95%; Growth controlling degree (%) Japanese bulrush (japanese bulrush; active ingredient 125 g/ha): 70%; Growth controlling degree (%) Japanese ribbon wapato (japanese ribbon wapato; active ingredient 125 g/ha): 50%; Growth controlling degree (%) Rice (rice (var. Nihonbare); active ingredient 125 g/ha): 10% |
| CC(Oc1ccccc1)C(=O)N(C)C(c1cnccc1C(F)(F)F)C(C)C (stereo not drawn) [I-119, N-methyl-N-[2-methyl-1-(4-trifluoromethylpyridin-3-yl)propyl]2-phenoxypropionamide] | 60% | 40% | 50% | 50% | 70% | 10% | 20% | 10% | 60% | – | – | – | – | – | – | – | – | – | – | – | Growth controlling degree (%) Barnyardgrass (barnyardgrass [10]; active ingredient 500 g/ha): 98%; Growth controlling degree (%) Japanese bulrush (japanese bulrush; active ingredient 500 g/ha): 100%; Growth controlling degree (%) Rice (rice (var. Nihonbare); active ingredient 500 g/ha): 20% |
